Measurements taken from patent publication US20080306056A1, “PYRAZOLE-DERIVATIVES AS FACTOR Xa INHIBITORS” (SANOFI-AVENTIS DEUTSCHLAND GMBH, priority 2002, published 2008).

Target: T1, human factor Xa (Homo sapiens, UniProt P00742)
T1 construct: 25 μl human factor Xa (Enzyme Research Laboratories, Inc; South Bend, Ind.); purchased Enzyme Research Laboratories, Inc; South Bend, Ind
Test: Factor Xa assay (chromogenic, purified enzyme)
Assay type: biochemical
Settings: inhibition constant for factor Xa; chromogenic substrate S-2765 140 μM, enzyme 0.5 nM, 25° C., pH 7.8; Ki=IC50/{1+(substrate concentration/Km)}; read-out: Ki(FXa)
From the text: The ability of the compound of formulae I, Ib and Ic to inhibit factor Xa or factor VIIa or other enzymes like thrombin, plasmin, or trypsin can be assessed by determining the concentration of the compound of the formulae I, Ib and Ic that inhibits enzyme activity by 50%, i.e. the IC50 value, which was related to the inhibition constant Ki. Purified enzymes were used in chromogenic assays. The concentration of inhibitor that causes a 50% decrease in the rate of substrate hydrolysis was determined by linear regression after plotting the relative rates of hydrolysis (compared to the uninhibited control) versus the log of the concentration of the compound of formulae I, Ib and Ic. For calculating the inhibition constant Ki, the IC50 value was corrected for competition with substrate using the formula wherein Km is the Michaelis-Menten constant (Chen and Prusoff, Biochem.
Ki=IC50/{1+(substrate concentration/Km)}
Pharmacol. 22 (1973) 3099-3108; I. H. Segal, Enzyme Kinetics, 1975, John Wiley & Sons, New York, 100-125; which were incorporated herein by reference).
The IC50 was determined by combining in appropriate wells of a Costar half-area microtiter plate 25 μl human factor Xa (Enzyme Research Laboratories, Inc.; South Bend, Ind.) in TBS-PEG; 40 μl 10% (v/v) DMSO in TBS-PEG (uninhibited control) or various concentrations of the compound to be tested diluted in 10% (v/v) DMSO in TBS-PEG; and substrate S-2765 (N(α)-benzyloxycarbonyl-D-Arg-Gly-L-Arg-p-nitroanilide; Kabi Pharmacia, Inc.; Franklin, Ohio) in TBS-PEG.
The assay was performed by pre-incubating the compound of formulae I, Ib and Ic plus enzyme for 10 min. Then the assay was initiated by adding substrate to obtain a final volume of 100 μl. The initial velocity of chromogenic substrate hydrolysis was measured by the change in absorbance at 405 nm using a Bio-tek Instruments kinetic plate reader (Ceres UV900HDi) at 25° C. during the linear portion of the time course (usually 1.5 min after addition of substrate). The enzyme concentration was 0.5 nM and substrate concentration was 140 μM.
The inhibitory activity towards factor VIIa/tissue factor activity was determined using a chromogenic assay essentially as described previously (J. A. Ostrem et al., Biochemistry 37 (1998) 1053-1059 which was incorporated herein by reference). Kinetic assays were conducted at 25° C. in half-area microtiter plates (Costar Corp., Cambridge, Mass.) using a kinetic plate reader (Molecular Devices Spectramax 250). A typical assay consisted of 25 μl human factor VIIa and TF (5 nM and 10 nM, respective final concentration) combined with 40 μl of inhibitor dilutions in 10% DMSO/TBS-PEG buffer (50 mM Tris, 15 mM NaCl, 5 mM CaCl2, 0.05% PEG 8000, pH 8.15). Following a 15 minute preincubation period, the assay was initiated by the addition of 35 μl of the chromogenic substrate S-2288 (D-Ile-Pro-Arg-p-nitroanilide, Pharmacia Hepar Inc., 500 μM final concentration).

T1 sequence (P00742 235-488 limits assumed): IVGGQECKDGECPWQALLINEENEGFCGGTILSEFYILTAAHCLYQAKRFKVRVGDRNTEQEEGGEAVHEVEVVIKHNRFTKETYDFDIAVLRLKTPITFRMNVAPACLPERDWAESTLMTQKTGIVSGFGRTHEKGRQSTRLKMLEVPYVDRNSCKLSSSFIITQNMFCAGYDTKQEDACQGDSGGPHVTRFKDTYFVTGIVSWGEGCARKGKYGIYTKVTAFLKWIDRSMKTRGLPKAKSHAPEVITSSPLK
T1 sequence (P00742 41-179 partner limits assumed): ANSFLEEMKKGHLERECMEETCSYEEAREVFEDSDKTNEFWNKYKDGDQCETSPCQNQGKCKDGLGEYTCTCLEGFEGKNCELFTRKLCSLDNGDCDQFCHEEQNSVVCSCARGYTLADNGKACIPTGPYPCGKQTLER

Compound | Ki [nM]
CC(C)N1CCC(NC(=O)c2cc(C(=O)N3CCCC3)nn2Cc2cc(-c3ccc(Cl)s3)on2)CC1 [Example 48, 2-[5-(5-Chloro-thiophen-2-yl)-isoxazol-3-ylmethyl]-5-(pyrrolidine-1-carbonyl)-2H-pyrazole-3-carboxylic acid (1-isopropyl-piperidin-4-yl)-amide] | 183
CC(C)N1CCC(NC(=O)c2cc(C(=O)NC#N)nn2Cc2cc(-c3ccc(Cl)s3)on2)CC1 [Example 49, 2-[5-(5-Chloro-thiophen-2-yl)-isoxazol-3-ylmethyl]-5-(cyanamide-1-carbonyl)-2H-pyrazole-3-carboxylic acid (1-isopropyl-piperidin-4-yl)-amide] | 40
COC(=O)c1cc(C(=O)NC2CCN(C(C)C)CC2)n(CC(=O)Nc2ccc(Cl)cn2)n1 [Example 50, 1-[(5-Chloro-pyridin-2-ylcarbamoyl)-methyl]-5-(1-isopropyl-piperidin-4-ylcarbamoyl)-1H-pyrazole-3-carboxylic acid methyl ester] | 10
CC(C)N1CCC(NC(=O)c2cc(C(=O)NC3CCC3)nn2CC(=O)Nc2ccc(Cl)cn2)CC1 [Example 52, 1-[(5-Chloro-pyridin-2-ylcarbamoyl)-methyl]-1H-pyrazole-3,5-dicarboxylic acid 3-cyclobutylamide 5-[(1-isopropyl-piperidin-4-yl)-amide]] | 16
CC(C)N1CCC(NC(=O)c2c(C#N)cnn2Cc2cc(-c3ccc(Cl)s3)on2)CC1 [Example 55, 2-[5-(5-Chloro-thiophen-2-yl)-isoxazol-3-ylmethyl]-4-cyano-2H-pyrazole-3-carboxylic acid (1-isopropyl-piperidin-4-yl)-amide] | 99
CC(C)N1CCC(NC(=O)c2nn(Cc3cc(-c4ccc(Cl)s4)on3)cc2C#N)CC1 [Example 56, 1-[5-(5-Chloro-thiophen-2-yl)-isoxazol-3-ylmethyl]-4-cyano-1H-pyrazole-3-carboxylic acid (1-isopropyl-piperidin-4-yl)-amide] | 144
CC(C)N1CCC(NC(=O)c2c(C#N)cnn2CC(=O)Nc2ccc(Cl)cc2)CC1 [Example 57, 2-[(4-Chloro-phenylcarbamoyl)-methyl]-4-cyano-2H-pyrazole-3-carboxylic acid (1-isopropyl-piperidin-4-yl)-amide] | 410
CC(C)N1CCC(NC(=O)c2cc(C(=O)NCCC(=O)O)nn2Cc2cc(-c3ccc(Cl)s3)on2)CC1 [Example 58, 3-{[1-[5-(5-Chloro-thiophen-2-yl)-isoxazol-3-ylmethyl]-5-(1-isopropyl-piperidin-4-ylcarbamoyl)-1H-pyrazole-3-carbonyl]-amino}-propionic acid] | 63
CONC(=O)c1cc(C(=O)NC2CCN(C(C)C)CC2)n(Cc2cc(-c3ccc(Cl)s3)on2)n1 [Example 59, 1-[5-(5-Chloro-thiophen-2-yl)-isoxazol-3-ylmethyl]-1H-pyrazole-3,5-dicarboxylic acid 5-[(1-isopropyl-piperidin-4-yl)-amide] 3-(methoxy-amide)] | 94
CC(C)N1CCC(NC(=O)c2cc(C(=O)NCC(N)=O)nn2Cc2cc(-c3ccc(Cl)s3)on2)CC1 [Example 60, 1-[5-(5-Chloro-thiophen-2-yl)-isoxazol-3-ylmethyl]-1H-pyrazole-3,5-dicarboxylic acid 3-carbamoylmethyl-amide 5-[(1-isopropyl-piperidin-4-yl)-amide]] | 56
CCOC(=O)CNC(=O)c1cc(C(=O)NC2CCN(C(C)C)CC2)n(Cc2cc(-c3ccc(Cl)s3)on2)n1 [Example 61, {[1-[5-(5-Chloro-thiophen-2-yl)-isoxazol-3-ylmethyl]-5-(1-isopropyl-piperidin-4-ylcarbamoyl)-1H-pyrazole-3-carbonyl]-amino}-acetic acid ethyl ester] | 101
CC(C)N1CCC(NC(=O)c2cc(C(=O)NCCCO)nn2Cc2cc(-c3ccc(Cl)s3)on2)CC1 [Example 62, 1-[5-(5-Chloro-thiophen-2-yl)-isoxazol-3-ylmethyl]-1H-pyrazole-3,5-dicarboxylic acid 3-[(3-hydroxy-propyl)-amide] 5-[(1-isopropyl-piperidin-4-yl)-amide]] | 80
CC(C)N1CCC(NC(=O)c2cc(C(=O)N3CC[C@H]3C(=O)O)nn2Cc2cc(-c3ccc(Cl)s3)on2)CC1 [Example 63, 1-[1-[5-(5-Chloro-thiophen-2-yl)-isoxazol-3-ylmethyl]-5-(1-isopropyl-piperidin-4-ylcarbamoyl)-1H-pyrazole-3-carbonyl]-(2S)-azetidine-2-carboxylic acid] | 134
CC(C)N1CCC(NC(=O)c2cc(C(=O)N3CCC[C@H]3CO)nn2Cc2cc(-c3ccc(Cl)s3)on2)CC1 [Example 64, 2-[5-(5-Chloro-thiophen-2-yl)-isoxazol-3-ylmethyl]-5-(2S,2-hydroxymethyl-pyrrolidine-1-carbonyl)-2H-pyrazole-3-carboxylic acid (1-isopropyl-piperidin-4-yl)-amide] | 90
CC(C)N1CCC(NC(=O)c2cc(C(=O)N3CCC[C@H]3C(=O)O)nn2Cc2cc(-c3ccc(Cl)s3)on2)CC1 [Example 65, 1-[1-[5-(5-Chloro-thiophen-2-yl)-isoxazol-3-ylmethyl]-5-(1-isopropyl-piperidin-4-ylcarbamoyl)-1H-pyrazole-3-carbonyl]-2S-pyrrolidine-2-carboxylic acid] | 142
COC[C@@H]1CCCN1C(=O)c1cc(C(=O)NC2CCN(C(C)C)CC2)n(Cc2cc(-c3ccc(Cl)s3)on2)n1 [Example 66, 2-[5-(5-Chloro-thiophen-2-yl)-isoxazol-3-ylmethyl]-5-(2S,2-methoxymethyl-pyrrolidine-1-carbonyl)-2H-pyrazole-3-carboxylic acid (1-isopropyl-piperidin-4-yl)-amide] | 152
COC[C@H]1CC[C@H](COC)N1C(=O)c1cc(C(=O)NC2CCN(C(C)C)CC2)n(Cc2cc(-c3ccc(Cl)s3)on2)n1 [Example 67, 5-(2R,5R,2,5-Bis-methoxymethyl-pyrrolidine-1-carbonyl)-2-[5-(5-chloro-thiophen-2-yl)-isoxazol-3-ylmethyl]-2H-pyrazole-3-carboxylic acid (1-isopropyl-piperidin-4-yl)-amide] | 420
CC(C)N1CCC(NC(=O)c2cc(C(=O)NC3=NCCO3)nn2Cc2cc(-c3ccc(Cl)s3)on2)CC1 [Example 68, 1-[5-(5-Chloro-thiophen-2-yl)-isoxazol-3-ylmethyl]-1H-pyrazole-3,5-dicarboxylic acid 3-[(4,5-dihydro-oxazol-2-yl)-amide] 5-[(1-isopropyl-piperidin-4-yl)-amide]] | 99
CCOC(=O)C1CCN(C(=O)c2cc(C(=O)NC3CCN(C(C)C)CC3)n(Cc3cc(-c4ccc(Cl)s4)on3)n2)CC1 [Example 69, 1-[1-[5-(5-Chloro-thiophen-2-yl)-isoxazol-3-ylmethyl]-5-(1-isopropyl-piperidin-4-ylcarbamoyl)-1H-pyrazole-3-carbonyl]-piperidine-4-carboxylic acid ethyl ester] | 177
CC(C)N1CCC(NC(=O)c2cc(C(=O)NCCN3CCOCC3)nn2Cc2cc(-c3ccc(Cl)s3)on2)CC1 [Example 70, 1-[5-(5-Chloro-thiophen-2-yl)-isoxazol-3-ylmethyl]-1H-pyrazole-3,5-dicarboxylic acid 5-[(1-isopropyl-piperidin-4-yl)-amide] 3-[(2-morpholin-4-yl-ethyl)-amide]] | 182
CC(C)N1CCC(NC(=O)c2cc(C(=O)N3CCC(F)(F)CC3)nn2Cc2cc(-c3ccc(Cl)s3)on2)CC1 [Example 71, 2-[5-(5-Chloro-thiophen-2-yl)-isoxazol-3-ylmethyl]-5-(4,4-difluoro-piperidine-1-carbonyl)-2H-pyrazole-3-carboxylic acid (1-isopropyl-piperidin-4-yl)-amide] | 184
CC(C)N1CCC(NC(=O)c2cc(C(=O)N3CCOC3=O)nn2Cc2cc(-c3ccc(Cl)s3)on2)CC1 [Example 72, 2-[5-(5-Chloro-thiophen-2-yl)-isoxazol-3-ylmethyl]-5-(2-oxo-oxazolidine-3-carbonyl)-2H-pyrazole-3-carboxylic acid (1-isopropyl-piperidin-4-yl)-amide] | 92
